Where a name gives a salt, the structure may show the parent alone. Read-outs that look alike come from different tables or passages of the source.
How the values were obtained:
[1] = system: Leptosphaeria nodorum (LEPTNO); test: In vitro fungitoxicity of hydrazones with and without copper towards Leptosphaeria nodorum (Example 26); type: cell-based; settings: for inhibition of growth at 0.05 µg/mL: Parastagonospora nodorum, 72 h, read-out: LEPTNO % Inhn. Minus Copper Observed
Phytophthora infestans = type: in vivo, Phytophthora infestans on tomato; settings: applied 24 h before inoculation, assessed 7 days after inoculation
[2] = copper-minus medium, test compound Concn. 0.05 μg/mL, 72 h at 25° C.
[3] = copper-plus medium (CuCl2 10 μM), test compound Concn. 0.05 μg/mL, 72 h at 25° C.
[4] = hydrazone 50 ppm with 50 μM CuCl2.2H2O, tomato late blight
[5] = compound 0.05 μg/mL, copper-minus medium, 72 h at 25° C.
[6] = compound 0.05 μg/mL, copper-plus medium (CuCl2.2H2O), 72 h at 25° C.
[7] = hydrazone 50 ppm + 50 μM CuCl2.2H2O, tomato

| SMILES | inhibition of growth at 0.05 µg/mL [1, 2] | LEPTNO % Inhn. Plus Copper Observed [1, 3] | TLB % Control (Phytophthora infestans; [4]) | melting point | inhibition of growth at 0.05 µg/mL [1, 5] | LEPTNO % Inhn. Plus Copper Observed [1, 6] | TLB % Control (Phytophthora infestans; [7]) | inhibition of growth at 0.05 µg/mL [1] |
| --- | --- | --- | --- | --- | --- | --- | --- | --- |
| Cc1ccc(C(=O)N/N=C/c2cc(C(F)(F)F)cc(C(F)(F)F)c2O)c(O)c1 [Example 342] | 9.1% | 98.3% | 86.0% | 251 to 254 °C | – | – | – | – |
| Cc1cccc(C(=O)N/N=C/c2ccc(Cl)c(Cl)c2O)c1 [Example 354] | 18.4% | 95.4% | 98.0% | 212 to 214 °C | – | – | – | – |
| O=C(N/N=C/c1cc(Br)cc(F)c1O)c1ccccc1O [Example 409] | 7.9% | 96.3% | 98.0% | 297 to 299 °C | – | – | – | – |
| COc1ccc(/C(C)=N/NC(=O)c2ccc(C(F)(F)F)cc2)c(O)c1 [Example 472] | 0% | 97.7% | 49.0% | 251 to 252 °C | – | – | – | – |
| COc1ccc(O)c(/C(C)=N/NC(=O)c2cccc(Cl)c2)c1 [Example 266] | – | – | – | 190 to 201 °C | 4.5% | 95.4% | 28.0% | – |
| O=C(N/N=C/c1cccc(C(F)(F)F)c1O)c1cccc([N+](=O)[O-])c1 [Example 349] | 17.4% | 96.9% | 97.0% | 215 to 217 °C | – | – | – | – |
| C/C(=N\NC(=O)c1ccccc1O)c1cc(C(F)(F)F)ccc1O (as salt: Na) [Example 538] | – | – | – | 277 to 297 °C | – | – | – | – |
| Cc1ccc(C(=O)N/N=C/c2ccc(Cl)cc2O)c(O)c1 [Example 397] | – | – | 6.7% | 283 to 287 °C | – | – | – | – |
| O=C(N/N=C/c1cc(Cl)cc(Br)c1O)c1ccccc1Br [Example 193] | – | – | – | – | 0% | 95.1% | 80.0% | – |
| O=C(N/N=C/c1cc(Cl)ccc1O)c1cccc(Cl)c1 [Example 178] | – | – | – | – | 8.5% | 98.3% | 59.3% | – |
| O=C(N/N=C/c1cc(Br)cc(Br)c1O)c1cccc(Cl)c1 [Example 122] | – | – | – | – | 13.5% | 98.7% | 92.7% | – |
| O=C(N/N=C/c1cc(Br)cc(Br)c1O)c1ccccc1F [Example 116] | – | – | – | – | 8.4% | 98.2% | 88.8% | – |
| O=C(N/N=C/c1cc(Br)ccc1O)c1ccccc1Oc1ccccc1 [Example 19] | – | – | – | – | 2.9% | 88.8% | 25.0% | – |
| Cc1cccc(C(=O)N/N=C/c2cc(Cl)cc(Br)c2O)c1 [Example 194] | – | – | – | – | – | 96.9% | 80.4% | 16.1% |
| C/C(=N\NC(=O)c1ccc(Cl)cc1)c1ccccc1O [Example 54] | – | – | – | – | 0% | 95.7% | 17.0% | – |
| C/C(=N\NC(=O)c1ccccc1[N+](=O)[O-])c1ccccc1O [Example 127] | – | – | – | – | 0% | 97.1% | 40.0% | – |
| O=C(N/N=C/c1cc(Br)ccc1O)c1cccc(Cl)c1 [Example 176] | – | – | – | – | 8.8% | 98.2% | 61.4% | – |
| O=C(N/N=C/c1cc(Cl)cc(Br)c1O)c1cccc(Br)c1 [Example 163] | – | – | – | – | 5.9% | 98.0% | 87.7% | – |
| C/C(=N\NC(=O)c1cccc(F)c1)c1ccccc1O [Example 25] | – | – | – | – | 0% | 97.3% | 35.1% | – |
| COc1cccc(C(=O)N/N=C/c2cc(Cl)ccc2O)c1 [Example 188] | – | – | – | – | 7.9% | 96.5% | 74.6% | – |

| SMILES | inhibition of growth at 0.05 µg/mL [1, 2] | LEPTNO % Inhn. Plus Copper Observed [1, 3] | TLB % Control (Phytophthora infestans; [4]) | melting point | inhibition of growth at 0.05 µg/mL [1, 5] | LEPTNO % Inhn. Plus Copper Observed [1, 6] | TLB % Control (Phytophthora infestans; [7]) | inhibition of growth at 0.05 µg/mL [1] |
| --- | --- | --- | --- | --- | --- | --- | --- | --- |
| C/C(=N\NC(=O)c1ccccc1C)c1ccccc1O [Example 66] | – | – | – | – | 0.1% | 97.4% | 51.0% | – |
| C/C(=N\NC(=O)c1ccc(C)cc1)c1ccccc1O [Example 36] | – | – | – | – | 5.9% | 98.4% | 33.9% | – |
| O=C(N/N=C/c1cc(I)cc(I)c1O)c1ccc(Cl)cc1 [Example 198] | – | – | – | – | 11.8% | 97.7% | 75.4% | – |
| COc1cccc(C(=O)N/N=C(\C)c2ccccc2O)c1 [Example 53] | – | – | – | – | 0% | 96.8% | 62.0% | – |
| CCOc1ccc(C(=O)N/N=C/c2cc(Br)cc(Br)c2O)cc1 [Example 104] | – | – | – | – | 27.7% | 98.2% | 70.2% | – |
| C/C(=N\NC(=O)c1ccc(F)cc1)c1cc(Cl)cc(Cl)c1O [Example 59] | – | – | – | – | 12.8% | 97.5% | 79.7% | – |
| O=C(N/N=C/c1cc(Br)ccc1O)c1ccccc1 [Example 148] | – | – | – | – | 15.4% | 97.9% | 72.9% | – |
| C/C(=N\NC(=O)c1ccc([N+](=O)[O-])cc1)c1ccccc1O [Example 215] | – | – | – | – | 0.5% | 98.6% | 37.0% | – |
| Cc1ccc(C(=O)N/N=C/c2cc([N+](=O)[O-])cc(Br)c2O)cc1 [Example 202] | – | – | – | – | 2% | 96.6% | 49.1% | – |
| Cc1ccc(C(=O)N/N=C/c2ccccc2O)cc1 [Example 8] | – | – | – | – | 0% | 92.6% | 59.6% | – |
| COc1ccccc1C(=O)N/N=C/c1cc(Br)cc(Br)c1O [Example 114] | – | – | – | – | 0% | 36.9% | 7.5% | – |
| O=C(N/N=C/c1cc(Br)cc(Br)c1O)c1cccc(Br)c1 [Example 113] | – | – | – | – | 17% | 98.0% | 94.7% | – |
| O=C(N/N=C/c1cc(Br)cc(Br)c1O)c1ccc(Cl)cc1 [Example 120] | – | – | – | – | 19.9% | 98.2% | 92.6% | – |
| O=C(N/N=C/c1cc(Cl)cc(Cl)c1O)c1cccc(Br)c1 [Example 71] | – | – | – | – | 2.6% | 91.2% | 78.0% | – |
| Cc1ccc(C)c(C(=O)N/N=C/c2cc(Cl)cc(Cl)c2O)c1 [Example 23] | – | – | – | 169 to 172 °C | – | – | 53.3% | – |
| C/C(=N\NC(=O)c1ccc(C(C)C)cc1)c1ccccc1O [Example 40] | – | – | – | – | 0% | 94.8% | 64.9% | – |
| COc1ccc(/C=N/NC(=O)c2ccc(Cl)cc2)c(O)c1 [Example 200] | – | – | – | – | 0% | 95.0% | 78.9% | – |
| O=C(Cc1ccc(F)cc1)N/N=C/c1cc(Cl)cc(Cl)c1O [Example 126] | – | – | – | – | 13.2% | 92.4% | 73.0% | – |
| COc1cc(O)c(/C(C)=N/NC(=O)c2ccccc2)c(OC)c1 [Example 526] | 1.8% | 16.2% | 41.0% | – | – | – | – | – |
| O=C(N/N=C/c1cc([N+](=O)[O-])ccc1O)c1ccccc1 [Example 152] | – | – | – | – | 0% | 89.1% | 26.0% | – |

From US20120010075A1 (priority 2009, published 2012)
